Assay results from patent US11051515B2, “3-acyl-benzamides and their use as herbicides” (Bayer Aktiengesellschaft, priority 2017, dated 2021).

Assays:
[1] = tested on: ABUTH; assay: Post-emergence action against ABUTH; type: in vivo, Abutilon theophrasti; conditions: post-emergence, dosage 80 g/ha, visual assessment about 3 weeks after treatment vs untreated controls
Procedure, shortened: (§1)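 Weeds grown in sandy loam in greenhouse, treated at one-leaf stage (2–3 weeks after sowing) with WP or EC formulations sprayed as aqueous suspension/emulsion at 600 to […] water with 0.2% wetting agent. Visual rating after about 3 weeks versus untreated controls, as % herbicidal action (100% = plants dead, 0% = like control).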

[2] = tested on: AMARE; assay: Post-emergence action against AMARE; type: in vivo, Amaranthus retroflexus; conditions: post-emergence, dosage 80 g/ha, visual assessment about 3 weeks after treatment vs untreated controls
Procedure, shortened: as §1

[3] = tested on: AMARE; assay: Pre-emergence action against AMARE; type: in vivo, Amaranthus retroflexus; conditions: pre-emergence, dosage 320 g/ha, scored visually after 3 weeks vs untreated controls
Procedure, shortened: (§2)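 Seeds sown in sandy loam in wood-fiber pots and covered with soil. Greenhouse growth; visual damage scored after 3 weeks versus untreated controls (100% = dead, 0% = like control).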

[4] = tested on: PHBPU; assay: Post-emergence action against PHBPU; type: in vivo, Pharbitis purpurea; conditions: post-emergence, dosage 80 g/ha
Procedure, shortened: as §1

[5] = tested on: ABUTH; assay: Pre-emergence action against ABUTH; type: in vivo, Abutilon theophrasti; conditions: pre-emergence, dosage 320 g/ha, scored visually after 3 weeks vs untreated controls
Procedure, shortened: as §2

[6] = tested on: VERPE; assay: Pre-emergence action against VERPE; type: in vivo, Veronica persica; conditions: Dosage 320 g/ha, pre-emergence
Procedure, shortened: as §2

[7] = tested on: ECHCG; assay: Post-emergence action against ECHCG; type: in vivo, Echinochloa crus-galli; conditions: post-emergence, dosage 80 g/ha, visual assessment about 3 weeks after treatment vs untreated controls
Procedure, shortened: as §1

[8] = tested on: AVEFA; assay: Post-emergence action against AVEFA; type: in vivo, Avena fatua; conditions: post-emergence, dosage 80 g/ha, visual assessment about 3 weeks after treatment vs untreated controls
Procedure, shortened: as §1

[9] = tested on: VIOTR; assay: Pre-emergence action against VIOTR; type: in vivo, Viola tricolor; conditions: Dosage 320 g/ha, pre-emergence
Procedure, shortened: as §2

[10] = tested on: DIGSA; assay: Pre-emergence action against DIGSA; type: in vivo, Digitaria sanguinalis; conditions: dosage 320 g/ha, scored visually after 3 weeks vs untreated controls
Excerpt: Seeds of monocotyledonous and dicotyledonous weed plants and crop plants are laid out in sandy loam soil in wood-fiber pots and covered with soil. The compounds of the invention, formulated in the form of wettable powders (WP) or as emulsion concentrates (EC), are then applied to the surface of the covering soil in the form of an aqueous suspension or emulsion at a water application rate equating to […], with addition of 0.2% wetting agent. After the treatment, the pots are placed in a greenhouse and kept under good growth conditions for the trial plants. The damage to the test plants is scored visually after a test period of 3 weeks by comparison with untreated controls (herbicidal activity in percent (%): 100% activity=the plants have died, 0% activity=like control plants).

[11] = tested on: ECHCG; assay: Pre-emergence action against ECHCG; type: in vivo, Echinochloa crus-galli; conditions: pre-emergence, dosage 320 g/ha, scored visually after 3 weeks vs untreated controls
Procedure, shortened: as §2

[12] = tested on: VIOTR; assay: Post-emergence action against VIOTR; type: in vivo, Viola tricolor; conditions: post-emergence, dosage 80 g/ha
Procedure, shortened: as §1

[13] = tested on: MATIN; assay: Pre-emergence action against MATIN; type: in vivo, Matricaria inodora; conditions: Dosage 320 g/ha, pre-emergence
Procedure, shortened: as §2

[14] = tested on: STEME; assay: Pre-emergence action against STEME; type: in vivo, Stellaria media; conditions: Dosage 320 g/ha, pre-emergence
Procedure, shortened: as §2

[15] = tested on: SETVI; assay: Pre-emergence action against SETVI; type: in vivo, Setaria viridis; conditions: pre-emergence, dosage 320 g/ha, scored visually after 3 weeks vs untreated controls
Procedure, shortened: as §2

[16] = tested on: STEME; assay: Post-emergence action against STEME; type: in vivo, Stellaria media; conditions: post-emergence, dosage 80 g/ha
Procedure, shortened: as §1

[17] = tested on: MATIN; assay: Post-emergence action against MATIN; type: in vivo, Matricaria inodora; conditions: post-emergence, dosage 80 g/ha, visual assessment about 3 weeks after treatment vs untreated controls
Procedure, shortened: as §1

[18] = tested on: PHBPU; assay: Pre-emergence action against PHBPU; type: in vivo, Pharbitis purpurea; conditions: Dosage 320 g/ha, pre-emergence
Procedure, shortened: as §2

Row | SMILES | Post-emergence action against ABUTH (herbicidal action in percent) [1] [%] | Post-emergence action against AMARE (herbicidal action in percent) [2] [%] | Pre-emergence action against AMARE (herbicidal activity) [3] [%] | Post-emergence action against PHBPU [4] | Pre-emergence action against ABUTH (herbicidal activity) [5] [%] | Pre-emergence action against VERPE [6] [%] | Post-emergence action against ECHCG (herbicidal action in percent) [7] [%] | Post-emergence action against AVEFA (herbicidal action in percent) [8] [%] | Pre-emergence action against VIOTR [9] [%] | Pre-emergence action against DIGSA (herbicidal activity) [10] [%] | Pre-emergence action against ECHCG (herbicidal activity) [11] [%] | Post-emergence action against VIOTR [12] | Pre-emergence action against MATIN [13] [%] | Pre-emergence action against STEME [14] [%] | SETVI (Table B8, pre-emergence herbicidal activity) [15] [%] | Post-emergence action against STEME [16] | Post-emergence action against MATIN (herbicidal action in percent) [17] [%] | Pre-emergence action against PHBPU [18] [%]
1 | Cn1nnnc1NC(=O)c1ccc(C(F)(F)F)c(C(=O)c2cc(F)cc(F)c2)c1Cl [1-287] | 80 | 90 | 100 | 90 | 100 | 100 | 90 | 80 | 100 | 80 | 80 | 90 | – | – | – | – | – | –
2 | CCn1nnnc1NC(=O)c1ccc(C(F)(F)F)c(C(=O)C2CCCCC2)c1Cl [2-155] | – | 80 | 100 | – | 100 | 80 | – | – | 100 | 90 | 80 | – | 100 | 100 | – | – | – | –
3 | CCCn1nnnc1NC(=O)c1ccc(C(F)(F)F)c(C(=O)C(F)F)c1Cl [3-163] | 80 | 100 | 100 | 90 | 100 | – | 80 | – | 100 | 100 | – | 80 | 100 | 90 | 100 | 100 | 90 | 80
4 | CCCn1nnnc1NC(=O)c1ccc(C(F)(F)F)c(C(=O)C2CCCCC2)c1SC [3-281] | – | 80 | 80 | – | 100 | – | – | – | 100 | 80 | – | – | – | 90 | – | – | – | –
